Test results: the supplement of paper PMC10307832

What was measured:
Assay in all cases: relative viability (nuclei count vs DMSO), 5 days (fraction); higher = more cells survive
EKVX = system: EKVX
Method in brief: (§1)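 For relative viability, nuclei counts in treated wells were divided by those in vehicle wells. Lung cancer cell lines had been pin-tool dosed in 1536-well plates the day after seeding and cultured for 5 days, then fixed and stained in one step (final 0.05% Triton X-100, 1% formaldehyde, 1 ug/ml Hoechst) and imaged at 4×. Doses were one drug alone or a fixed anchor-drug dose plus five library-drug doses (not always all listed) in √10 steps, and values are duplicate-plate medians.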

EMC-BAC-2 = system: EMC-BAC-2
Method in brief: as §1

EPLC-272H = system: EPLC-272H
Method in brief: as §1

HCC-78 = system: HCC-78
Method in brief: as §1

HCC-827 = system: HCC-827
Method in brief: as §1

LCLC-103H = system: LCLC-103H
Method in brief: as §1

LK-2 = system: LK-2
Method in brief: as §1

LU99A = system: LU99A
Method in brief: as §1

LXF-289 = system: LXF-289
Method in brief: as §1

NCI-H1563 = system: NCI-H1563
Method in brief: as §1

NCI-H1666 = system: NCI-H1666
Method in brief: as §1

NCI-H1975 = system: NCI-H1975
Method in brief: as §1

NCI-H2126 = system: NCI-H2126
Method in brief: as §1

NCI-H23 = system: NCI-H23
Method in brief: as §1

NCI-H2405 = system: NCI-H2405
Method in brief: as §1

NCI-H322M = system: NCI-H322M
Method in brief: as §1

PC-14 = system: PC-14
Method in brief: as §1

RERF-LC-KJ = system: RERF-LC-KJ
Method in brief: as §1

SK-LU-1 = system: SK-LU-1
Method in brief: as §1

SW 1573 = system: SW 1573
Method in brief: as §1

`O=c1cc(-c2cccc3c2Sc2ccccc2S3)oc(N2CCOCC2)c1` + Cc1nc(NC(=O)N2CCC[C@H]2C(N)=O)sc1-c1ccnc(C(C)(C)C(F)(F)F)c1 [Alpelisib] (partner 2 µM) was tested. Which relative viability (EKVX; first compound 0.08 µM) did it give?
Its relative viability is 1.05.

What about the relative viability (EKVX; first compound 0.253 µM) of the same molecule?
Its relative viability is 0.963.

And the relative viability (EKVX; first compound 0.8 µM)?
The relative viability was 0.805.

And the relative viability (EKVX; first compound 2.53 µM)?
Its relative viability is 1.

And the relative viability (EKVX; first compound 8 µM)?
The relative viability was 0.755.

What about the relative viability (EMC-BAC-2; first compound 0.08 µM) of the same molecule?
The relative viability was 0.755.

What about the relative viability (EMC-BAC-2; first compound 0.253 µM) of the same molecule?
The relative viability was 0.799.

And the relative viability (EMC-BAC-2; first compound 0.8 µM)?
The relative viability was 0.815.

And the relative viability (EMC-BAC-2; first compound 2.53 µM)?
Its relative viability is 0.71.

And the relative viability (EMC-BAC-2; first compound 8 µM)?
Its relative viability is 0.856.

What about the relative viability (EPLC-272H; first compound 0.08 µM) of the same molecule?
The relative viability was 0.966.

And the relative viability (EPLC-272H; first compound 0.253 µM)?
The relative viability was 1.11.

And the relative viability (EPLC-272H; first compound 0.8 µM)?
The relative viability was 0.987.

What about the relative viability (EPLC-272H; first compound 2.53 µM) of the same molecule?
Its relative viability is 0.86.

And the relative viability (EPLC-272H; first compound 8 µM)?
Its relative viability is 0.929.

What about the relative viability (HCC-78; first compound 0.08 µM) of the same molecule?
Its relative viability is 0.355.

And the relative viability (HCC-78; first compound 0.253 µM)?
The relative viability was 0.319.

What about the relative viability (HCC-78; first compound 0.8 µM) of the same molecule?
Its relative viability is 0.305.

What about the relative viability (HCC-78; first compound 2.53 µM) of the same molecule?
The relative viability was 0.307.

And the relative viability (HCC-78; first compound 8 µM)?
The relative viability was 0.339.

What about the relative viability (HCC-827; first compound 0.08 µM) of the same molecule?
Its relative viability is 0.957.

And the relative viability (HCC-827; first compound 0.253 µM)?
Its relative viability is 1.02.

And the relative viability (HCC-827; first compound 0.8 µM)?
Its relative viability is 1.01.

What about the relative viability (HCC-827; first compound 2.53 µM) of the same molecule?
Its relative viability is 0.826.

What about the relative viability (HCC-827; first compound 8 µM) of the same molecule?
The relative viability was 0.979.

What about the relative viability (LCLC-103H; first compound 0.08 µM) of the same molecule?
Its relative viability is 0.994.

And the relative viability (LCLC-103H; first compound 0.253 µM)?
Its relative viability is 1.06.

And the relative viability (LCLC-103H; first compound 0.8 µM)?
The relative viability was 0.837.

What about the relative viability (LCLC-103H; first compound 2.53 µM) of the same molecule?
The relative viability was 0.971.

What about the relative viability (LCLC-103H; first compound 8 µM) of the same molecule?
The relative viability was 0.963.

And the relative viability (LK-2; first compound 0.08 µM)?
Its relative viability is 1.22.

And the relative viability (LK-2; first compound 0.253 µM)?
The relative viability was 1.11.

What about the relative viability (LK-2; first compound 0.8 µM) of the same molecule?
The relative viability was 1.49.

And the relative viability (LK-2; first compound 2.53 µM)?
Its relative viability is 0.995.

And the relative viability (LK-2; first compound 8 µM)?
Its relative viability is 1.75.

And the relative viability (LU99A; first compound 0.08 µM)?
Its relative viability is 0.507.

And the relative viability (LU99A; first compound 0.253 µM)?
The relative viability was 0.567.

And the relative viability (LU99A; first compound 0.8 µM)?
Its relative viability is 0.747.

And the relative viability (LU99A; first compound 2.53 µM)?
The relative viability was 0.504.

And the relative viability (LU99A; first compound 8 µM)?
Its relative viability is 0.575.

And the relative viability (LXF-289; first compound 0.08 µM)?
The relative viability was 1.1.

What about the relative viability (LXF-289; first compound 0.253 µM) of the same molecule?
The relative viability was 1.07.

And the relative viability (LXF-289; first compound 0.8 µM)?
The relative viability was 1.14.

And the relative viability (LXF-289; first compound 2.53 µM)?
The relative viability was 1.01.

What about the relative viability (LXF-289; first compound 8 µM) of the same molecule?
Its relative viability is 1.07.

What about the relative viability (NCI-H1563; first compound 0.08 µM) of the same molecule?
Its relative viability is 0.917.

What about the relative viability (NCI-H1563; first compound 0.253 µM) of the same molecule?
Its relative viability is 1.04.

What about the relative viability (NCI-H1563; first compound 0.8 µM) of the same molecule?
The relative viability was 0.853.

What about the relative viability (NCI-H1563; first compound 2.53 µM) of the same molecule?
The relative viability was 0.848.

What about the relative viability (NCI-H1563; first compound 8 µM) of the same molecule?
The relative viability was 0.822.

And the relative viability (NCI-H1666; first compound 0.08 µM)?
Its relative viability is 0.789.

And the relative viability (NCI-H1666; first compound 0.253 µM)?
The relative viability was 1.13.

What about the relative viability (NCI-H1666; first compound 0.8 µM) of the same molecule?
The relative viability was 0.82.

And the relative viability (NCI-H1666; first compound 2.53 µM)?
The relative viability was 0.854.

And the relative viability (NCI-H1666; first compound 8 µM)?
Its relative viability is 0.681.

What about the relative viability (NCI-H1975; first compound 0.08 µM) of the same molecule?
The relative viability was 0.722.

What about the relative viability (NCI-H1975; first compound 0.253 µM) of the same molecule?
Its relative viability is 0.786.

And the relative viability (NCI-H1975; first compound 0.8 µM)?
The relative viability was 0.656.

And the relative viability (NCI-H1975; first compound 2.53 µM)?
The relative viability was 0.498.

And the relative viability (NCI-H1975; first compound 8 µM)?
The relative viability was 0.452.

And the relative viability (NCI-H2126; first compound 0.08 µM)?
The relative viability was 0.827.

And the relative viability (NCI-H2126; first compound 0.253 µM)?
The relative viability was 0.822.

What about the relative viability (NCI-H2126; first compound 0.8 µM) of the same molecule?
The relative viability was 0.734.

What about the relative viability (NCI-H2126; first compound 2.53 µM) of the same molecule?
Its relative viability is 0.739.

What about the relative viability (NCI-H2126; first compound 8 µM) of the same molecule?
Its relative viability is 0.735.

And the relative viability (NCI-H23; first compound 0.08 µM)?
The relative viability was 0.562.

And the relative viability (NCI-H23; first compound 0.253 µM)?
The relative viability was 0.801.

What about the relative viability (NCI-H23; first compound 0.8 µM) of the same molecule?
Its relative viability is 0.752.

And the relative viability (NCI-H23; first compound 2.53 µM)?
The relative viability was 0.603.

And the relative viability (NCI-H23; first compound 8 µM)?
Its relative viability is 0.72.

What about the relative viability (NCI-H2405; first compound 0.08 µM) of the same molecule?
The relative viability was 0.749.

And the relative viability (NCI-H2405; first compound 0.253 µM)?
Its relative viability is 0.777.

What about the relative viability (NCI-H2405; first compound 0.8 µM) of the same molecule?
The relative viability was 0.792.

What about the relative viability (NCI-H2405; first compound 2.53 µM) of the same molecule?
The relative viability was 0.73.

And the relative viability (NCI-H2405; first compound 8 µM)?
Its relative viability is 0.614.

And the relative viability (NCI-H322M; first compound 0.08 µM)?
Its relative viability is 0.784.

And the relative viability (NCI-H322M; first compound 0.253 µM)?
Its relative viability is 0.79.

And the relative viability (NCI-H322M; first compound 0.8 µM)?
Its relative viability is 0.79.

And the relative viability (NCI-H322M; first compound 2.53 µM)?
The relative viability was 0.964.

What about the relative viability (NCI-H322M; first compound 8 µM) of the same molecule?
Its relative viability is 0.838.

What about the relative viability (PC-14; first compound 0.08 µM) of the same molecule?
Its relative viability is 0.936.

What about the relative viability (PC-14; first compound 0.253 µM) of the same molecule?
Its relative viability is 1.17.

And the relative viability (PC-14; first compound 0.8 µM)?
Its relative viability is 1.11.

And the relative viability (PC-14; first compound 2.53 µM)?
The relative viability was 0.821.

And the relative viability (PC-14; first compound 8 µM)?
The relative viability was 1.05.

And the relative viability (RERF-LC-KJ; first compound 0.08 µM)?
The relative viability was 0.83.

What about the relative viability (RERF-LC-KJ; first compound 0.253 µM) of the same molecule?
The relative viability was 0.917.

And the relative viability (RERF-LC-KJ; first compound 0.8 µM)?
Its relative viability is 0.824.

And the relative viability (RERF-LC-KJ; first compound 2.53 µM)?
The relative viability was 0.741.

And the relative viability (RERF-LC-KJ; first compound 8 µM)?
Its relative viability is 0.939.

What about the relative viability (SK-LU-1; first compound 0.08 µM) of the same molecule?
Its relative viability is 1.03.

And the relative viability (SK-LU-1; first compound 0.253 µM)?
Its relative viability is 1.12.

What about the relative viability (SK-LU-1; first compound 0.8 µM) of the same molecule?
The relative viability was 1.26.

And the relative viability (SK-LU-1; first compound 2.53 µM)?
The relative viability was 0.991.

And the relative viability (SK-LU-1; first compound 8 µM)?
The relative viability was 0.977.

What about the relative viability (SW 1573; first compound 0.08 µM) of the same molecule?
Its relative viability is 0.719.

And the relative viability (SW 1573; first compound 0.253 µM)?
Its relative viability is 0.785.

What about the relative viability (SW 1573; first compound 0.8 µM) of the same molecule?
Its relative viability is 0.667.

What about the relative viability (SW 1573; first compound 2.53 µM) of the same molecule?
The relative viability was 0.803.

And the relative viability (SW 1573; first compound 8 µM)?
Its relative viability is 0.657.
